Test results published in US20120142766A1, “SUBSTITUTED 1,3-DIOXANES AND THEIR USES” (EVOLVA SA, priority 2007, published 2012).

Legend:
KKA^y mice = experiment: KKAy mice on high fat diet, 14-day oral gavage BID; type: in vivo, mouse
Protocol: 52 male KKA^y mice are obtained commercially (e.g., from Clea Japan) at an age of 6 weeks and put on a high fat diet upon arrival. Individual mice were housed in IVC Type II cages during both the acclimatization and the experimental phase. Both food (high fat diet) and water are supplied ad libitum.
1 animal per cage. […] Lights on at 06:00 a.m. Temperature: 21-25° C. Relative humidity target range: 55-60%.
Mice were randomized into treatment groups according to their 4-h fasting blood glucose.
4 hours after the last administration, non-fasting conditions.
Gamma irradiated high fat diet is commercially available (e.g., Research Diets, Inc. New Brunswick, N.J. (Product # D12266BI)).
Blood is collected into heparin containing glass capillaries which are subsequently centrifuged in a “Haematokrit 24” centrifuge (Hettich) at 15′200×g for 10 minutes at room temperature to obtain the hematocrit value.
The following serum parameters are determined on a COBAS INTEGRA 800 auto analyzer (Roche Diagnostics, Switzerland) using the reagents and protocols provided by the supplier.
All measurements are made on Day 14 of administration, except for the food intake and body weight measurements that are made on Day 12.

Thromboxane synthase = target: T1, Thromboxane synthase (Homo sapiens, UniProt P24557); experiment: Human platelet thromboxane synthase assay; type: biochemical
T1 construct: Human Platelet Thromboxane Synthase Assay; from tissue; host or cells: human platelets
T1 sequence (P24557 1-533): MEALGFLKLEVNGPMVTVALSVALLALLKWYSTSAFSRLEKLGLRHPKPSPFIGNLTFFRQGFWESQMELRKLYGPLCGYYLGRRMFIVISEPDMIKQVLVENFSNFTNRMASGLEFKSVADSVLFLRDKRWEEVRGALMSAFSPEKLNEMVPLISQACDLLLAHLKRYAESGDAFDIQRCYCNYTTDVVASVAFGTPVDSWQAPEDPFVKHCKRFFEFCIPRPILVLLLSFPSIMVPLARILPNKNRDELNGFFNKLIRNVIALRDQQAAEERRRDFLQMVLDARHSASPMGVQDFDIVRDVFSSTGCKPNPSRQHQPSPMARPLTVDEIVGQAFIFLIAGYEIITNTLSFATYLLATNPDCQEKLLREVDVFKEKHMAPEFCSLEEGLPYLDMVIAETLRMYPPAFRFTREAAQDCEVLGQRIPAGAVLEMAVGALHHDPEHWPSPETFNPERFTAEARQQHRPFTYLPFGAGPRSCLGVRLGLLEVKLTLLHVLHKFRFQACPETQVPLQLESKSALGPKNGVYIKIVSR
Protocol: The compounds were tested for thromboxane synthase inhibition essentially as described by Borsch-Haubold A G, Pasquet S, Watson S P. (1998) Direct inhibition of cyclooxygenase-1 and -2 by the kinase inhibitors SB 203580 and PD 98059. […] 1. Imidazole derivatives. J Med. Chem. (10):1139-48 according to the following:
Pre-incubation time, temp: 15 minutes at 25° C. Incubation time, temp: 3 minutes at 25° C.
Incubation Buffer: 10 mM Tris-HCl, pH 7.4
Quantification Method: EIA quantification of TxB2

[1] = target: T2, Human Recombinant (E. coli) PPARgamma (Homo sapiens, UniProt P37231); experiment: PPAR gamma binding assay ([3H]-rosiglitazone); details: [3H]-rosiglitazone 10 nM; read-out: PPARγ binding IC50
T2 construct: host or cells: E. coli
T2 sequence (P37231 1-505): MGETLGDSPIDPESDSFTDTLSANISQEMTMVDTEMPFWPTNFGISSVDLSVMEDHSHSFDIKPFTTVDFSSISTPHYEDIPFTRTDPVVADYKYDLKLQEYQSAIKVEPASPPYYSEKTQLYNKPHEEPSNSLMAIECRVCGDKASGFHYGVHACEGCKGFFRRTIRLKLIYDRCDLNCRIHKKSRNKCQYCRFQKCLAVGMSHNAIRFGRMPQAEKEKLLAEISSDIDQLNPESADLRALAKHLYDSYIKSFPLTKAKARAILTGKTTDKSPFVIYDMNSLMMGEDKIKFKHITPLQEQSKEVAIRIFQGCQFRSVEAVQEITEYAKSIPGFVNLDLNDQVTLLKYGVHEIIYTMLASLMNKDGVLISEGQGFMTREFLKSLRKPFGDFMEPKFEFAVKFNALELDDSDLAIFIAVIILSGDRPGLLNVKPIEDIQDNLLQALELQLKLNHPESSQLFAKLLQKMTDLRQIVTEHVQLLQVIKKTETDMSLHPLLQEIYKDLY
Protocol: Incubation: 120 min. at 4° C.
The results are expressed as a percent of control specific binding ((measured specific binding/control specific binding)×100) obtained in the presence of the test compounds. The IC50 values (concentration causing a half-maximal inhibition of control specific binding) and Hill coefficients (nil) were determined by non-linear regression analysis of the competition curves generated with mean replicate values using Hill equation curve fitting (Y=D+[(A−D)/(1+(C/C50)nH)], where Y=specific binding, D=minimum specific binding, A=maximum specific binding, C=compound concentration, C50=IC50, and nH=slope factor). This analysis was performed using a software developed at Cerep (Hill software) and validated by comparison with data generated by the commercial software SigmaPlot® 4.0 for Windows® (© 1997 by SPSS Inc.). The inhibition constants (Ki) were calculated using the Cheng Prusoff equation (Ki=IC50/(1+(L/KD)), where L=concentration of radioligand in the assay, and KD=affinity of the radioligand for the receptor).

[2] = test system: New Zealand Rabbit platelet rich plasma; experiment: TP receptor platelet aggregation, rabbit (U-46619-induced); type: cell-based
Protocol: Thrombosis Research 33:277-288.
TP Receptor Platelet Aggregation—Rabbit:
New Zealand Rabbit (2.75±0.25 kg) platelet rich plasma
Assay: Inhibition of 1.5 μM U-46619-induced platelet aggregation Incubation Time, Temp: 5 minutes at 37° C. Incubation Buffer Trisodium Citrate (0.13 M)-treated platelet rich plasma
Time of Assessment: 5 minutes
Quantification Method Optical Density Change

[3] = target: T3, Thromboxane receptor (TP) (Homo sapiens, UniProt P21731); experiment: TP receptor radioligand binding ([3H] SQ-29548); details: Human recombinant HEK-293 cells
T3 construct: expressed in transfected cells; host or cells: HEK-293
T3 sequence (P21731 1-343): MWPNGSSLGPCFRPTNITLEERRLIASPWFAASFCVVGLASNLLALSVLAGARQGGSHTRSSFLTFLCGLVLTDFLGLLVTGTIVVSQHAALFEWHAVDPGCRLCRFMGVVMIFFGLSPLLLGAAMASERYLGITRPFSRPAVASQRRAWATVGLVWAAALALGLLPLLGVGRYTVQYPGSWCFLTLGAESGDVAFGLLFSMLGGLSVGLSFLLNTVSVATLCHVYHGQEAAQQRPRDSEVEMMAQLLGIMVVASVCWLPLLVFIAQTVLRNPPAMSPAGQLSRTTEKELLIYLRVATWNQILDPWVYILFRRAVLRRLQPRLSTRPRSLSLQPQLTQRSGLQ
Protocol: The compounds were tested on radioligand binding assays for thromboxane receptor binding essentially as described by Hedberg et al. (1988) J. Pharmacol. Exp. Ther. 245:786-792 and Saussy et al. (1986) J. Biol. Chem. 261: 3025-3029 according to the following:
TP Receptor Radioligand Binding Studies:
Human recombinant HEK-293 cells,
Incubation Time, Temp: 30 minutes at 25° C.
Incubation Buffer: 50 mM Tris-HCl, pH 7.4, 154 mM NaCl
Non-Specific Ligand: 1 μM SQ-29548
The data were transformed to semi-log and then analysed using non-linear regression to a four-parameter dose-response curve Y=Bottom+(Top−Bottom)/(1+10̂((LogEC50−X)*HillSlope)) using the log(agonist) vs. response—Variable slope function of GraphPad Prism software (http://graphpad.com/help/prism5/prism5help.html?usitignonlinear_regression_step_by_s.htm).

[4] = test system: arterial thrombosis in a mouse model; experiment: Arterial thrombosis mouse model (FeCl3 on femoral artery); type: in vivo
Protocol: The solutions are diluted 3.3-fold in saline and 100 μl/25 g is injected. Thus, the above-mentioned doses of 100 and 300 mg/kg of compound correspond to final doses of 30 and 100 mg/kg.
During the experiments, a soluble salt of the drug is provided (potassium salt of compound C), diluted in saline. Of this formulation, 100 μl/25 g is injected i.v. in the tail vein (dose of 100 mg/kg).
Solutions are injected (100 μl/25 g body weight) i.v. in the tail vein over 2 min to obtain doses of each compound of 30 mg/kg and 100 mg/kg. Aspirin is given the same way at a dose of 200 mg/kg. Clopidogrel is administered by oral gavage at a dose of 20 mg/kg at 6-7 hours prior to the experiment. The animals assigned to each group are matched for body weight. Mice are typically 8-10 weeks old males and are in a 100% Swiss genetic background.
The flow in each image is expressed as a percentage of that at the contralateral side, and data are averaged for all 120 images to determine total flow. The same analysis is performed for 10 min intervals (which gives essentially the same information as the area under the curve). […] Flow before treatment is recorded as 100%, and that in occluded arteries as 0%. At the end of the experiment, blood is collected on 0.01M citrate by heart puncture for determination of blood cell counts. Plasma is prepared by centrifugation and stored at −20° C. for determination of drug levels.
Statistical analysis for differences between two groups is performed by non-parametric Student t-test. Occlusion times >30 min were considered equal to 30 min for statistical analysis. Significance is set at p<0.05.

[5] = 5 mg/kg BID oral gavage, Day 12, mean ± S.E.M.
[6] = 5 mg/kg BID oral gavage, Day 14, mean ± S.E.M.
[7] = 14-day BID, enoic acid 53 mg/kg, rosiglitazone 5 mg/kg, Compounds 3 and 13 dose not stated
[8] = Oryctolagus cuniculus, Platelet, 1.5 μM U-46619-induced

SMILES: CN(CCOc1ccc(CC2SC(=O)NC2=O)cc1)c1ccccn1 (stereo not shown) [Rosiglitazone]
- Body Weight (KKA^y mice; [5]): 49.5 ± 1.0 g
- Food Intake (KKA^y mice; [5]): 4.5 ± 0.6 g/day
- ALP (KKA^y mice; [6]): 26.0 ± 1.7 dU/L
- ALT (KKA^y mice; [6]): 8.9 ± 0.9 dU/L
- AST (KKA^y mice; [6]): 10.1 ± 0.9 dU/L
- FFA (KKA^y mice; [6]): 1.3 ± 0.1 mM
- Fructosamine (KKA^y mice; [6]): 0.35 ± 0.03 mM
- HDL (KKA^y mice; [6]): 3.6 ± 0.2 mM
- HbA1C (KKA^y mice; [6]): 7.8 ± 0.4 %
- Heart weight (KKA^y mice; [6]): 226.2 ± 6.9 mg
- Hematocrit (KKA^y mice; [6]): 40.3 ± 1.5%
- Insulin (KKA^y mice; [6]): 17.9 ± 4.2 µg/L
- Serum Glucose (KKA^y mice; [6]): 18.8 ± 2.2 mM
- TG (KKA^y mice; [6]): 1.0 ± 0.2 mM
- Total Cholesterol (KKA^y mice; [6]): 4.0 ± 0.4 mM
- Body weight (in words) (KKA^y mice; [7]): increased
- Heart weight (in words) (KKA^y mice; [7]): increased

SMILES: O=C(O)CC/C=C\C[C@@H]1COC(c2ccc(Nc3ccccc3)cc2)O[C@@H]1c1ccccc1O (mixture of isomers) [Compound 3, (Z)-6-(4-(2-Hydroxyphenyl)-2-(4-(phenylamino)phenyl)-1,3-dioxan-5-yl)hex-4-enoic acid]
- Body weight (in words) (KKA^y mice; [7]): do not alter body weight
- FFA (in words) (KKA^y mice; [7]): decreases the FFA
- HbA1c levels (in words) (KKA^y mice; [7]): decreased
- Heart weight (in words) (KKA^y mice; [7]): no effect on heart weight

SMILES: COc1ccccc1C1OC(c2ccccc2Cl)OCC1C/C=C\CCC(=O)O (stereo not shown) [Compound D, (Z)-6-(-2-(2-chlorophenyl)-4-(2-methoxyphenyl)-1,3-dioxan-5-yl)hex-4-enoic acid]
- inhibition at 5 µM (Thromboxane synthase; 5 μM): 12%
- IC50 [1]: 21000 nM
- inhibition at 10 µM [2, 8]: 33%
- inhibition at 10 µM [3]: 98%

SMILES: O=C(O)CC/C=C\C[C@@H]1COC(c2ccccc2-c2ccccc2)O[C@@H]1c1ccccc1O (stereo partly shown) [Compound 10]
- Occlusion time ([4]; dose not given): prolongs the occlusion time
- Total blood flow ([4]; dose not given): improves total blood flow
- IC50 (Thromboxane synthase): 840 nM
- Thromboxane synthase Human platelet Inhibition (%) at 5 μM (Thromboxane synthase; 5 μM): 76%
- inhibition at 5 µM (Thromboxane synthase; 5 μM): 75%
- Inhibition of thromboxane synthase (in words) (Thromboxane synthase; Table 2): inhibitors of thromboxane synthase
- inhibition at 30 µM ([2]; Oryctolagus cuniculus, Platelet, 30 μM, 1.5 μM U-46619-induced): 100%
- Inhibition of platelet aggregation (in words) ([2]; Table 2): potent inhibitors of platelet aggregation
- inhibition at 10 µM [3]: 102%
- IC50 ([3]; 5 nM [3H] SQ-29548): 11 nM
- Ki ([3]; 5 nM [3H] SQ-29548): 7.2 nM

SMILES: COC(=O)[C@H](c1ccccc1Cl)N1CCc2sccc2C1 [Clopidogrel]
- Total blood flow ([4]; 20 mg/kg oral gavage 6-7 hours prior): significantly improved total blood flow

SMILES: CC(=O)Oc1ccccc1C(=O)O [Aspirin]
- Occlusion time ([4]; 200 mg/kg i.v.): no effect on the occlusion time
- Total blood flow ([4]; 200 mg/kg i.v.): no significant effect on the total blood flow

SMILES: O=C(O)CC/C=C\C[C@@H]1COC(c2ccccc2Oc2ccc(F)cc2)O[C@@H]1c1ccccc1O (stereo partly shown) [Compound 4]
- inhibition at 5 µM (Thromboxane synthase; 5 μM): 39%
- IC50 [1]: 2100 nM
- inhibition at 10 µM [2, 8]: 100%
- inhibition at 10 µM [3]: 100%

SMILES: COc1ccc(C(=O)NCc2cccnc2)cc1C(=O)NCc1cccnc1 [Picotamide]
- IC50 (Thromboxane synthase): 10100 nM
- inhibition at 10 µM (Thromboxane synthase; 10 μM): 53%
- inhibition at 100 µM ([2]; Oryctolagus cuniculus, Platelet, 100 μM, 1.5 μM U-46619-induced): 36%
